Tested on: red blood cell (RBC)
Assay: Cell-based antioxidant protection in erythrocytes (CAP-e) assay
Details: human RBC, AAPH; biphasic dose response; FIG. 2
Text: As a model cell type, red blood cell (RBC) was used. This is an inert cell type, in contrast to other cell types such as PMN cells as described in section 2, where pro-inflammatory compounds may induce the reactive oxidative burst, or anti-inflammatory compounds may perform cellular signaling and change the behavior of the PMN cell, at doses many times below levels of detection for antioxidants. This assay was developed particularly to be able to assess antioxidants from complex natural products in a cell-based system. Human RBC were washed repeatedly physiological saline, and then exposed to the test products. During the incubation with the test products, any antioxidant compounds able to cross the cell membrane will enter the interior of the RBC. Then the RBC are washed to remove compounds that were not absorbed by the cells, loaded with the DCF-DA dye, which turns fluorescent upon exposure to reactive oxygen species. Oxidation was triggered by addition of the peroxyl free radical generator AAPH. The fluorescence intensity was evaluated. The low fluorescence intensity of untreated control cells served as a baseline, and RBC treated with AAPH alone served as a positive control for maximum oxidative damage.

O=C[C@H](O)[C@H](O)[C@H](O)CO [ribose, Ribose]
antioxidant protection of erythrocytes from oxidative damage: protected the erythrocytes

Source: patent publication US20130196934A1, “COMPOSITION FOR PERINATAL AND NEONATAL STROKE” (priority 2010, published 2013)
